In patent publication US20140155384A1, “COMPOUNDS AND METHODS OF TREATING DIABETES” (Medivation Technologies, Inc., priority 2011, published 2014):

Tests used:
[1] = target: T1, rat adrenergic α1B receptor (Rattus norvegicus, UniProt P15823); test: Radioligand binding, adrenergic α1B receptor ([3H]Prazosin); settings: 0.1 μM compound, Wistar rat liver, read-out: Percentage inhibition of ligand binding, Adrenergic α1B
T1 construct: rat adrenergic α1B receptor obtained from Wistar Rat liver; from tissue; host or cells: Wistar rat liver
T1 sequence (P15823 1-515): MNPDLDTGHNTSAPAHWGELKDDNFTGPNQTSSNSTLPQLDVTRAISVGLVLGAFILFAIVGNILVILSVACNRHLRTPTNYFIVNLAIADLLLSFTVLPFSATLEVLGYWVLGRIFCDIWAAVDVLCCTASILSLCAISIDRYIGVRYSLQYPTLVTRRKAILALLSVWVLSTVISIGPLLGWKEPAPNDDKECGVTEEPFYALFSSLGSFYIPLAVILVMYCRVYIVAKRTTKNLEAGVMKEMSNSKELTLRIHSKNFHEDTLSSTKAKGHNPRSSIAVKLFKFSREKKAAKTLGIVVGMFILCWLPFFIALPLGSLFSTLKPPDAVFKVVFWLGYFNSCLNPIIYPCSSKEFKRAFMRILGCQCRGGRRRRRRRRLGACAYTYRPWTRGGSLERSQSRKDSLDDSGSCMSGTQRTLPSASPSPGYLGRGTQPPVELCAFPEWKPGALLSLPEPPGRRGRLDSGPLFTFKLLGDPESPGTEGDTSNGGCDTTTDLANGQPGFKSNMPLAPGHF
How it was run: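 Wistar rat liver α1B receptor preparation incubated with 0.25 nM [3H]prazosin and compound for 60 min at 25° C in 50 mM Tris-HCl pH 7.4, 0.5 mM EDTA; nonspecific binding defined with 10 μM phentolamine.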

[2] = target: T2, human recombinant adrenergic α1D receptor (Homo sapiens, UniProt P25100); test: Radioligand binding, adrenergic α1D receptor ([3H]Prazosin); settings: 0.1 μM compound; HEK-293 cells; 0.6 nM [3H]Prazosin; read-out: Percentage inhibition of ligand binding, Adrenergic α1D
T2 construct: expressed in transfected cells; host or cells: HEK-293
T2 sequence (P25100 1-572): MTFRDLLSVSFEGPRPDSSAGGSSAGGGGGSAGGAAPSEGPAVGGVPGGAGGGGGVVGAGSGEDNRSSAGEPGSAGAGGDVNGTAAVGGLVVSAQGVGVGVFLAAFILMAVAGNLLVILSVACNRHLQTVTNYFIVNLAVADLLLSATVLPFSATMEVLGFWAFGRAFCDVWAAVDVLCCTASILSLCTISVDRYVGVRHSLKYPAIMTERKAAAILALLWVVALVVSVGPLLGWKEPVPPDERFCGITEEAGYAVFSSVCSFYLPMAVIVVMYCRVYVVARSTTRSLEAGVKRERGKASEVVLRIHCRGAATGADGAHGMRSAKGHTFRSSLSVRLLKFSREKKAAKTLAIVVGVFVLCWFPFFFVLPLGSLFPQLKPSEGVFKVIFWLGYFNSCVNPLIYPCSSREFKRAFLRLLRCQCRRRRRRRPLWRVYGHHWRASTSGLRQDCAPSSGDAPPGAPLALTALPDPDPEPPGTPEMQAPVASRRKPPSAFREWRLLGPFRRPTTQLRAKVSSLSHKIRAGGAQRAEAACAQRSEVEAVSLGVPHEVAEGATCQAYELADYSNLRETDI
Procedure: Compounds were incubated with 0.6 nM [3H]Prazosin for 60 min at 25° C. Non-specific binding was estimated in the presence of 10 μM phentolamine. Receptor proteins were filtered and washed, the filters were then counted to determine [3H]Prazosin specifically bound. Compounds were screened at 1 μM or lower, using 1% DMSO as vehicle. Biochemical assay results are presented as the percent inhibition of specific binding in Table 2.

[3] = target: T3, human recombinant adrenergic α2A receptor (Homo sapiens, UniProt P08913); test: Radioligand binding, adrenergic α2A receptor ([3H]MK-912); settings: 0.1 μM compound; Sf9 cells; 1 nM [3H]MK-912; read-out: Percentage inhibition of ligand binding, Adrenergic α2A
T3 construct: expressed in transfected cells; host or cells: insect Sf9 cells
T3 sequence (P08913 1-465): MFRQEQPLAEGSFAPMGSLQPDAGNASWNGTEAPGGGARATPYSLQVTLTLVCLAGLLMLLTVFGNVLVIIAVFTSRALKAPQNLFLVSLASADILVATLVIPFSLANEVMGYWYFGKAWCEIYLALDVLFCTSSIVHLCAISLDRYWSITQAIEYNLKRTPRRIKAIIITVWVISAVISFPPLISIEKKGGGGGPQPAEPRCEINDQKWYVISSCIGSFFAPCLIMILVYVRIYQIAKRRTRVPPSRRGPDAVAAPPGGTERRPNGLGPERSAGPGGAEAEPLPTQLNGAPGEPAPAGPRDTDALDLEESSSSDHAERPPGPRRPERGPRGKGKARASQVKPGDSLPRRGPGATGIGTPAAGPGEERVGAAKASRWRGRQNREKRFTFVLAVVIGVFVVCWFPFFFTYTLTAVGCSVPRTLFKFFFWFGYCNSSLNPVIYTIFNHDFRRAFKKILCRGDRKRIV
How it was run: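 Percent inhibition of specific [3H]MK-912 (1 nM) binding measured by filtration counting, compounds tested at ≤1 μM in 1% DMSO. Receptor: human α2A from Sf9 cells; incubation 60 min, 25 °C, pH 7.4; 10 μM WB-4101 defined nonspecific binding.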

[4] = target: T4, human recombinant adrenergic α2B receptor (Homo sapiens, UniProt P18089); test: Radioligand binding, adrenergic α2B receptor ([3H]Rauwolscine); settings: 0.1 μM compound, CHO-K1 cells, read-out: Percentage inhibition of ligand binding, Adrenergic α2B
T4 construct: expressed in transfected cells; host or cells: CHO-K1
T4 sequence (P18089 1-450): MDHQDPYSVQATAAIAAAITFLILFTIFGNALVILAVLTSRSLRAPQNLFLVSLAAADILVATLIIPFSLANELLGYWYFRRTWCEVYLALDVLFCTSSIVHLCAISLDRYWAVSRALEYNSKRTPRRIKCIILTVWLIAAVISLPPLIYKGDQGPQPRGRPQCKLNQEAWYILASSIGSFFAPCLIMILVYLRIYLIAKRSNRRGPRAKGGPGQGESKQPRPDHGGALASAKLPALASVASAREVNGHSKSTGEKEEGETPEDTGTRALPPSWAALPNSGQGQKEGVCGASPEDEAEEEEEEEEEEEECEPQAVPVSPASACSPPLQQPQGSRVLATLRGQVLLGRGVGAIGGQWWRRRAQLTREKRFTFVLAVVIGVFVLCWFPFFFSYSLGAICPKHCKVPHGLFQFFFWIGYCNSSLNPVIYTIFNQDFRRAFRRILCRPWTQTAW
How it was run: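 Percent inhibition of specific [3H]Rauwolscine (2.5 nM) binding, compounds at ≤1 μM, 1% DMSO vehicle, 10 μM prazosin defining nonspecific. Receptor: human α2B expressed in CHO-K1 cells, 60 min incubation at 25 °C in Tris-HCl pH 7.4 buffer (MgCl2, EDTA, BSA); filtered, washed, counted.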

inhibition at 0.1 µM [1] [%]	inhibition at 0.1 µM [2] [%]	inhibition at 0.1 µM [3] [%]	inhibition at 0.1 µM [4] [%]	SMILES
14	14	30	21	Cc1ccc2c(c1)c1c(n2-c2ccccc2-c2c(C)noc2C)CCN(C)C1 [Compound No. 82, 4-(2-(2,8-dimethyl-3,4-dihydro-1H-pyrido[4,3-b]indol-5(2H)-yl)phenyl)-3,5-dimethylisoxazole]
22	13	8	60	Cc1ccc2c(c1)c1c(n2-c2ccc3nc(C)ccc3c2)CCN(C)C1 [Compound No. 157, 2,8-dimethyl-5-(2-methyl-quinolin-6-yl)-2,3,4,5-tetrahydro-1H-pyrido[4,3-b]indole]
22	24	22	39	Cc1ccc2c(c1)c1c(n2-c2cccc3ccncc23)CCN(C)C1 [Compound 58, 5-(isoquinolin-8-yl)-2,8-dimethyl-2,3,4,5-tetrahydro-1H-pyrido[4,3-b]indole]
11	5	23	7	Cc1ccc2c(c1)c1c(n2-c2cccc(-c3ccc(F)cc3)c2)CCN(C)C1 [Compound No. 61, 5-(4′-fluorophenyl-3-yl)-2,8-dimethyl-2,3,4,5-tetrahydro-1H-pyrido[4,3-b]indole]
10	-1	25	1	Cc1ccc2c(c1)c1c(n2-c2cccc(-c3ccc(C)s3)c2)CCN(C)C1 [Compound No. 64, 2,8-dimethyl-5-(3-(5-methylthiophen-2-yl)phenyl)-2,3,4,5-tetrahydro-1H-pyrido[4,3-b]indole]
10	16	9	51	Cc1ccc2c(c1)c1c(n2-c2cscc2C(=O)N(C)C)CCN(C)C1 [Compound No. 152]
10	-3	17	7	Cc1ccc2c(c1)c1c(n2-c2cccc(-c3cnc(N(C)C)nc3)c2)CCN(C)C1 [Compound 42, 5-(3-(2,8-dimethyl-3,4-dihydro-1H-pyrido[4,3-b]indol-5(2H)-yl)phenyl)-N,N-dimethylpyrimidin-2-amine]
36	65	4	90	CC(=O)Nc1ccc(-c2cscc2-n2c3c(c4cc(C)ccc42)CN(C)CC3)cn1 [Compound 56]
71	65	79	84	Cc1ccc2c(c1)c1c(n2-c2ccccc2-c2cccc3[nH]ncc23)CCN(C)C1 [Compound No. 105, 5-(2-(1H-indazol-4-yl)phenyl)-2,8-dimethyl-2,3,4,5-tetrahydro-1H-pyrido[4,3-b]indole]
62	50	69	82	Cc1ccc2c(c1)c1c(n2-c2ccc(-c3cccc4ccccc34)cn2)CCN(C)C1 [Compound No. 141, 2,8-dimethyl-5-(5-(naphthalen-1-yl)pyridin-2-yl)-2,3,4,5-tetrahydro-1H-pyrido[4,3-b]indole]
15	6	15	45	Cc1ccc2c(c1)c1c(n2-c2ccc3c(c2)CCN(C=O)C3)CCN(C)C1 [Compound No. 77, 6-(2,8-dimethyl-1,2,3,4-tetrahydro-pyrido[4,3-b]indol-5-yl)-3,4-dihydro-1H-isoquinoline-2-carbaldehyde]
72	74	57	92	Cc1ccc2c(c1)c1c(n2-c2ccc(-c3c(C)noc3C)cn2)CCN(C)C1 [Compound No. 137, 4-(6-(2,8-dimethyl-3,4-dihydro-1H-pyrido[4,3-b]indol-5(2H)-yl)pyridin-3-yl)-3,5-dimethylisoxazole]
73	73	40	82	Cc1ccc2c(c1)c1c(n2-c2ccc(-c3cnc(N(C)C)nc3)cn2)CCN(C)C1 [Compound No. 138, 5-(6-(2,8-dimethyl-3,4-dihydro-1H-pyrido[4,3-b]indol-5(2H)-yl)pyridin-3-yl)-N,N-dimethylpyrimidin-2-amine]
64	83	16	94	CNC(=O)c1ccc(-c2cscc2-n2c3c(c4cc(C)ccc42)CN(C)CC3)cn1 [Compound No. 73]
67	68	84	95	Cc1ccc2c(c1)c1c(n2-c2cscc2-c2ccc(F)nc2)CCN(C)C1 [Compound 35]
66	87	11	89	CNC(=O)c1ccc(-c2ccccc2-n2c3c(c4cc(C)ccc42)CN(C)CC3)cn1 [Compound No. 71, 5-(2-(2,8-dimethyl-3,4-dihydro-1H-pyrido[4,3-b]indol-5(2H)-yl)phenyl)-N-methylpicolinamide]
9	23	12	27	Cc1ccc2c(c1)c1c(n2-c2ccccc2-c2ccc(O)nc2)CCN(C)C1 [Compound No. 80, 5-(2-(2,8-dimethyl-3,4-dihydro-1H-pyrido[4,3-b]indol-5(2H)-yl)phenyl)pyridin-2-ol]
